The source of these data is paper PMC3166295 (PLoS ONE, 2011).

SMILES strings stand for the structures. Peptide text beside a SMILES is read from it.

In assay [1] the test system is 8H5 binding to H5N1 virus Chicken/HongKong/YU22/2002. Also on record: species or system H5N1 avian influenza virus.
Assay [2] has as its system 8H5 binding to H5N1 virus Shenzhen/406H/2006. Further details: species or system H5N1 avian influenza virus.
The test system of assay [3] is chicken serum antibody against H5N1 avian influenza virus. In kind it is binding.
Assay [4] concerns 8H5 mAb. The assay is classed as binding, murine.
In assay [5] the target is 8H5 mAb. The assay is classed as binding, murine. As to conditions: read-out: Kd (dissociation constant for 8H5).

Consider `CC[C@H](C)[C@H](NC(=O)[C@@H](NC(=O)[C@H](CC(C)C)NC(=O)[C@@H]1CCCN1C(=O)[C@@H](NC(=O)[C@@H](N)CC(=O)O)[C@@H](C)O)[C@@H](C)O)C(=O)N[C@@H](C)C(=O)NCC(=O)N[C@@H](CC(C)C)C(=O)N[C@@H](CCCCN)C(=O)N[C@@H](CC(C)C)C(=O)N[C@H](C(=O)O)C(C)C` [II-1c] (H-DTPLTIAGLKLV-OH; N-terminus and C-terminus assumed), for which the “Blocking Dose Yu22: amount of peptide that blocks binding of 8H5 to the virus by 50%” value (shortened to “Blocking Dose Yu22: amount … by 50%”) in assay [1] turned out to be 8.90 µg. In assay [2], the “Blocking Dose SZ/406H: amount of peptide that blocks binding of 8H5 to the virus by 50%” value (shortened to “Blocking Dose SZ/406H: amount … by 50%”) worked out at 2.38 µg.
The corresponding values for `CC(C)C[C@H](NC(=O)[C@H](C)NC(=O)[C@H](CCC(N)=O)NC(=O)[C@H](CCCCN)NC(=O)[C@@H](NC(=O)[C@H](CC(C)C)NC(=O)[C@H](CCC(=O)O)NC(=O)[C@@H](NC(=O)[C@@H](N)CC(=O)O)[C@@H](C)O)[C@@H](C)O)C(=O)N[C@@H](CCCNC(=N)N)C(=O)N[C@@H](CC(C)C)C(=O)N[C@H](C(=O)O)C(C)C` [III-2a] (H-DTELTKQALRLV-OH; N-terminus and C-terminus assumed) are 15.19 µg and 6.10 µg.
The corresponding values for `CC[C@H](C)[C@H](NC(=O)[C@@H](NC(=O)[C@H](CC(C)C)NC(=O)[C@H](CCC(=O)O)NC(=O)[C@@H](NC(=O)[C@@H](N)CCC(=O)O)[C@@H](C)O)[C@@H](C)O)C(=O)N[C@@H](C)C(=O)N[C@@H](C)C(=O)N[C@@H](CC(C)C)C(=O)N[C@@H](CCCCN)C(=O)N[C@@H](Cc1ccc(O)cc1)C(=O)N[C@H](C(=O)O)C(C)C` [IV-1b] (H-ETELTIAALKYV-OH; N-terminus and C-terminus assumed) are above 50 µg and above 50 µg.
As for `CC[C@H](C)[C@H](NC(=O)[C@@H](NC(=O)[C@H](CC(C)C)NC(=O)[C@@H]1CCCN1C(=O)[C@@H](NC(=O)[C@@H](N)CCC(=O)O)[C@@H](C)O)[C@@H](C)O)C(=O)N[C@@H](C)C(=O)NCC(=O)N[C@@H](CC(C)C)C(=O)N[C@@H](CCCCN)C(=O)N[C@@H](CC(C)C)C(=O)N[C@@H](CCCCN)C(=O)O` [V-1b] (H-ETPLTIAGLKLK-OH; N-terminus and C-terminus assumed), the “Blocking Dose Yu22: amount … by 50%” value in assay [1] came to 5.70 µg. Further, in assay [2], the “Blocking Dose SZ/406H: amount … by 50%” value worked out at 2.31 µg. Also, the “reactivity of the ELISA produced with V-1b fused to HBcAg with chicken serum samples” value in assay [3] was “only the H5N1 avian influenza reactive samples were also 8H5 reactive”.
`CC(C)C[C@H](NC(=O)[C@H](C)NC(=O)[C@H](C)NC(=O)[C@@H](NC(=O)[C@@H](NC(=O)[C@H](CC(C)C)NC(=O)[C@@H]1CCCN1C(=O)[C@@H](NC(=O)[C@@H](N)CC(=O)O)[C@@H](C)O)[C@@H](C)O)[C@@H](C)O)C(=O)N[C@@H](CCCNC(=N)N)C(=O)N[C@@H](CC(C)C)C(=O)N[C@H](C(=O)O)C(C)C` [p125] (H-DTPLTTAALRLV-OH; N-terminus and C-terminus assumed): the “8H5 titer (Tod1.5): phage dilution yielding an OD value of 1.5” value with 8H5 mAb [4] is reported as 2.96. The “Blocking Dose Yu22: amount … by 50%” value in assay [1] was 18.34 µg. Also, the “Blocking Dose SZ/406H: amount … by 50%” value in assay [2] is 11.16 µg. Besides, at 8H5 mAb [5], the Kd was determined as 0.824 µM.
